Data: US11793816B2, “Methods for enhancing cytotoxic cancer therapy through inhibition of ATG4B” (Northwestern University, priority 2019, dated 2023)
Entries after “also recorded” stand apart in the source; their conditions may differ.

Experiments:
U87 cells = test: Cell viability assay, AZD2014, 72 h; assay type: cell-based
Procedure: (§1) FIG. 5. A mTORC1/2 inhibitor AZD2014 inhibited cell survival, mTORC1 and mTORC2 activities in GSCs and glioma cells. (A) GSC M83 and JK83 and glioma cells U87 were treated with indicated concentration of AZD2014 for 72 h, then cell viability was evaluated. (B) GSC M83 and JK83 were treated with the indicated concentration of AZD2014 for 1 hr, or with 2 μM AZD2014 for the specified time. Cells were collected for immunoblot analysis. β-actin was used as a loading control; Results are representative of 2 independent experiments. *P<0.05, **P<0.01, paired two-way Student's t-test. Data are representative from three independent experiments with similar results.
Glioma cells U87 (from ATCC) were cultured in DMEM (Invitrogen) supplemented with 10% FBS and 1% penicillin and streptomycin. Neural progenitor cells were cultured in NPBM Neural Progenitor Basal medium supplemented with hEGF, hFGF, NSF-1 and GA (Lonza, Cat #: cc-3210, cc-4241 and cc-4242). […]
GSCs with single or combined treatments were cultured for 72 hours in 96-well plates at 2,000 cells per well. Cell viabilities were determined using CellTiter-Glow 2.0 Assay (Promega). […]

GSC JK83 and M83 = test: Cell viability assay, AZD2014 and NSC, 72 h; assay type: cell-based
Procedure: as §1
(§2) FIG. 6. NSC enhanced the cytotoxicity of a mTORC1/2 inhibitor AZD2014 in GSCs. (A) GSC M83 and JK83 were exposed to DMSO control vs AZD2014 vs NSCs vs AZD2014 in combination with NSC for 72 hr. Cells were collected for immunoblot analysis using indicated antibodies. (B) Immunofluorescence analyses for LC3B puncta in GSC M83 and JK83 cells with indicated treatments. (C and D) GSC M83 and JK83 and/or neural progenitor cells (NPC) were treated as indicated in (A), cell viability was tested at 72 h after treatment (C), and cell apoptosis was measured by Annexin V FACS assay 48 h after treatment. Data are representative from three independent experiments with similar results.
GSCs with single or combined treatments were cultured for 72 hours in 96-well plates at 2,000 cells per well. Cell viabilities were determined using CellTiter-Glow 2.0 Assay (Promega).
(§3) mTOR kinases are crucial regulators of glioma cell growth, proliferation and survival (Akhavan et al., 2010). […] A strong inhibition was achieved by 1 μM with complete block of mTORC1/2 activities at 2 μM (FIG. 5B).
(§4) Since autophagy activation is considered as a cytoprotective factor that contribute to tumor survival when challenged by therapies, it is proposed that block of autophagy activation by NSC would further enhanced the cytotoxicity of dual TORC1/2 inhibitor AZD2014.

[1] = test system: mTORC1 and mTORC2 activity in GSC M83 and JK83 cells; test: Immunoblot of mTORC1 and mTORC2 activity in GSCs; assay type: cell-based
Procedure: as §1, §2
IB assays were performed as previously described (Huang et al., 2016b). Specific antibodies were used according to the manufacturer's instructions: LC3B (#3868S), pAKT (Ser473; 4060), pAKT(Thr308; 4056), AKT (4691), pS6(S235/236; 2211), S6 (2317), phosphorylated 4E-binding protein 1 (p4EBP1) (Thr37/46; 2855), 4EBP1 (9644), p-mTOR (Ser2448; 2971S), p-mTOR (Ser2481; 2974S), mTOR (2972S), pULK1(Ser317; 14202T), pULK1 (Ser757; 8054T), ULK1(6439), LAMP2 (49067S) were from Cell Signaling Technology. Anti-β-actin (SC-47778) and anti-SQSTM1/p62 (SC-28359) antibodies were from Santa Cruz Biotechnology. An anti-Ki-67 antibody (AB9260) was from EMD Millipore.
as §3, §4

[2] = test system: LC3B, p62/SQSTM-1 and LAMP2 in GSC M83 and JK83 cells; test: Immunoblot of autophagy markers (LC3B, p62, LAMP2) in GSCs treated with AZD2014 and NSC; assay type: cell-based; conditions: NSC in the presence of AZD2014
Procedure: as §1
as §2, with “results. […]” for “results.”

[3] = test system: LC3B puncta in GSC M83 and JK83 cells; test: LC3B immunofluorescence (puncta, autophagosomes); assay type: cell-based; conditions: NSC in cells treated with AZD2014
Procedure: as §2
Immunofluorescent staining. GSCs were seeded onto LabTek CC2-treated tissue culture slides (Thermo Fisher) and cultured for 24 hours. Cells were then fixed with 4% formaldehyde (Fisher) for 15 min, and permeabilized with 0.1% Triton X-100, and then blocked with AquaBlock (East Coast Bio, North Berwick, Me.) for 60 minutes. The slides were incubated with indicated primary antibodies according to the manufacturer's instructions. After being washed for three times with PBS-T, cells were incubated with secondary antibody (Alexa 488 and 594, 1:200) and DAPI-containing mounting solution Vectashield (Vector Laboratories). Cells were analyzed on a Nikon inverted microscope Eclipse Ti-U equipped with a digital camera. […]

[4] = test system: GSC JK83 orthotopic xenografts; test: GSC JK83 orthotopic brain tumor xenograft model (survival, BLI, tissue staining); assay type: in vivo, mice
From the text: FIG. 7. NSC enhance anticancer efficacy of AZD2014 in a patient-derived GSC xenograft model. […] Treatments were started at one week post-implantation. Bioluminescent (BLI) images were taken after the last treatment, and representative images are shown. Scale bar, photons/sec/cm2/steradian. (B) Kaplan-Meier of mice bearing GSC JK83 orthotopic xenografts with indicated treatments. (C) The brains of mice bearing orthotopic xenografts with indicated treatments were collected for immunohistochemical evaluation using indicating antibody. *P<0.05, **p<0.01, […]. Data are representative from three independent experiments with similar results.
Frozen brain tissue sections with GBM xenografts were dried and then fixed in were fixed in 4% paraformaldehyde (PFA) in PBS for 5 minutes. Tissue sections were blocked with AquaBlock (East Coast Bio, North Berwick, Me.) for an hour and then were probed with appropriate primary antibodies 4° C. overnight. Tissue sections were incubated with Alexa 488 or 594 labelled secondary antibodies (1:200) and DAPI-containing mounting solution Vectashield (Vector Laboratories), and representative images were photographed using a Nikon inverted microscope Eclipse Ti-U equipped with a digital camera.
To determine whether the enhancement of AZD2014 therapeutic efficiency by combination with NSC measured in vitro extends to an orthotopic model, GSC JK83 glioma spheres were employed to initiate intracerebral xenografts in mice.

[5] = test system: intracranial GBM6FL TMZ res xenografts; test: Intracranial PDX GBM6FL temozolomide resistant xenograft model; assay type: in vivo, mice; conditions: compared to vehicle-treated brain xenografts
From the text: FIG. 8. Combination therapy of autophagy inhibitor NSC185058 (NSC) with IR+TMZ suppressed growth of intracranial GBM6FL temozolomide (TMZ) resistant (res) xenografts. […] Mice were imaged at the indicated day after the implantation, and representative BLI images are shown. (B) Changes in the body weight of the mice in each respective treatment groups. (C, D) Effects of NSC, IR, TMZ and the indicated combinations on GBM6FL TMZ res orthotopic xenografts in mice. The luminescence of xenograft tumors formed by indicated treatment. **p<0.01 compared to vehicle controls. Colored scale bars represent photons/s/cm2/steradian. (E, F) Kaplan-Meier (E) and log-rank p value analyses (F) of mice bearing GBM6FL TMZ res orthotopic xenografts with indicated treatments. First and second IR+TMZ+NSC tri-treatments were started at day 7 and day 35 post-implantation, respectively.
GBM6FL TMZ res orthotopic xenograft model was recently established by Dr. Charles David James at Northwestern University as intracranial GBM xenografts after three runs of TMZ treatments and subsequent passages in the flanks of mice.

SMILES	concentration at which cell viability was significantly decreased (U87 cells)	cell viability (GSC JK83 and M83; 72 h, combination compared with monotherapy, AZD2014 alone)	concentration at which cell viability was significantly decreased (GSC JK83 and M83; GSC JK83 and M83, 72 h)	inhibition efficiency on GSCs compared with glioma cells (GSC JK83 and M83; same concentration of AZD2014, GSCs vs U87)	mTOR signaling and ULK1 phosphorylation ([1]; GSC83 and JK83 cells, 72 hr)	concentration giving complete block of mTORC1/2 activities ([1]; GSC M83 and JK83)	concentration giving strong inhibition of mTORC1/2 activities ([1]; GSC M83 and JK83)	time by which inhibition of mTORC1 and mTORC2 was detectable ([1]; GSC M83 and JK83, 2 μM AZD2014)	inhibition of p-S6, p-4EBP1, p-AKT (Ser473) ([1]; GSC M83 and JK83, 1 hr)	autophagy markers (LC3B conversion, p62 and LAMP2 degradation) [2]	autophagosomes number (LC3 B immunofluorescence) [3]	levels of p-4EBP1 and p-AKT in tumor tissues ([4]; AZD2014 alone or in combination with NSC vs control)	mouse survival ([4]; NSC (100 mg/kg), AZD2014 (50 mg/kg), alone or combined, vs control)	response of xenografts to TMZ treatments [5]
CNC(=O)c1cccc(-c2ccc3c(N4CCOC[C@@H]4C)nc(N4CCOC[C@@H]4C)nc3n2)c1 [AZD2014, vistusertib]	0.1 µM	displayed inhibitor effects on GBM cell viability	1 µM	significantly lower than glioma cells	inhibited mTOR induced p-52448/81-mTOR, p-S473-Akt, p-S6, p-S757-ULK1	2 µM	1 µM	≤ 2 h	dose-dependently inhibited p-S6, p-4EBP1, and p-AKT (Ser473)	increased LC3-II conversion (LC3B-II/I ratio) and p62/SQSTM-1 degradation; also recorded: induced autophagic influx by inducing LC3B lipidation and degradation of p62 and LAMP2	increase of autophagosomes number	significantly reduced in the levels of p-4EBP1 and p-AKT	modest but significant effects on mouse survival	–
Cn1nnc2c(C(N)=O)ncn2c1=O [TMZ, temozolomide]	–	–	–	–	–	–	–	–	–	–	–	–	–	no response
